Entries after “also recorded” stand apart in the source; their conditions may differ.
How the values were obtained:
[1] = tested on: E-cadherin promoter activity; test: EcadPro-RFP reporter 3D high-content imaging in tumor organoids; format: cell-based; conditions: 72 h; for EC50: Homo sapiens, SW-620, read-out: EC50 upregulation of E-cadherin promoter activity, SW620 tumor organoids
Experimental: After validating hits 5-7 against CHD1L mediated TCF transcription, the ability of these compounds to reverse EMT and other malignant properties in CRC were evaluated. E-cadherin and vimentin are putative biomarkers for the epithelial and mesenchymal phenotypes, respectively. [McDonald et al., 2015] Loss of E-cadherin and gain of vimentin are also clinical biomarkers of poor prognosis. [Yun et al., 2014; Richardson et al., 2012; Dhanasekaran et al., 2001; Kashiwagi et al., 2010; Toiyama et al., 2013] Accordingly, lentiviral promoter driven reporters for E-cadherin (pCDH1-EcadPro-RFP) and vimentin (pCDH1-VimPro-GFP) were developed, which faithfully report E-cadherin and vimentin protein expression, respectively. [Zhou et al., 2016; Abraham et al., 2019] SW620 cells transduced with either EcadPro-RFP or VimPro-GFP were cultured as tumor organoids for 72 h, reaching a diameter of 600 μm. Tumor organoids were treated with compounds 5-7 for an additional 72 h to determine the effective concentration 50 percent (EC50) for modulating promoter activity. Changes in promoter expression was quantified using a 3D confocal image […] based high-content analysis algorithm (FIG. 2A-2B). [Zhou et al., 2016; Abraham et al., 2019]
CHD1L has been reported to confer anti-apoptotic activity by inhibiting activation of caspase-dependent apoptosis. [Li et al., 2013; Sun et al., 2016] Additionally, reversal or inhibition of EMT is known to restore apoptotic activity of cancer cells. [Lu et al., 2014] To determine if CHD1L inhibitors reverse EMT prior to induction of cell death, E-cadherin expression by EcadPro-RFP reporter activity was monitored and cytotoxicity was measured using the CellTox™ Green assay. Cells were treated with CHD1L inhibitors for 72 h and imaged every 2 h.
Stable VimPro-GFP or EcadPro-RFP SW620 reporter cells were generated using pCDH imPro-GFP-EF1-puro virus or pCDH-EcadPro-mCherry-EF1-puro virus as previously reported. [Zhou et al., 2016; Abraham et al., 2019] The stable fluorescently labeled reporter cells were used to generate tumor organoids as described herein. Tumor organoids were treated with CHD1L inhibitors at 10 μM for an additional 72 h. Following treatment, tumor organoids were stained with 16 μM of Hoechst 33342 for 1 h (nuclei stain). Images were taken with a 5× air objective. Z-stacks were set at 26.5 μm apart for a total of 15 optical slices. Imaging and high-content analysis were performed using an Opera Phenix™ and Harmony® software (PerkinElmer, Hopkinton, Mass.). Nuclei were identified within each layer and cells were found with either GFP or mCherry channel. The fluorescence intensities of each channel were calculated and thresholds were set based on the background intensities. Percentages of GFP or mCherry RFP positive cells were calculated and normalized to the DMSO treated group.
3D High-Content Imaging and Analysis of EMT Dual-Reporter Activity. Tumor organoids were imaged using the Opera Phenix high-content screening system (PerkinElmer) in confocal mode utilizing a 10× air objective (NA 0.3). The following excitation and emission (Ex/Em) wavelengths were employed: RFP (561/570-630) and GFP (488/500-550). Organoids were also imaged in Brightfield to segment and perform high-content analysis of dual reporter specific fluorescence intensity. RFP fluorescent signal correlates with E-Cadherin promoter activity, while GFP fluorescent signal is correlates with vimentin promoter activity. Both fluorescent signals were quantified and normalized as previously described. (Esquer, et al., 2021)

[2] = tested on: HCT-116 and DLD1CHD1L-OE cells; test: Clonogenic colony formation after 24 h pretreatment (CSC stemness); format: cell-based, human; conditions: colonies over 10 days
Experimental: To assess CHD1L inhibitors for their ability to suppress CSC stemness, HCT-116 or CHD1L overexpressing DLD1 cell lines were pre-treated in monolayer cultures for 24 h with vehicle control (0.5% DMSO) or CHD1L inhibitors at the concentrations indicated in FIG. 2C. Pretreated viable cells were plated at 1,000 cells/well in 6-well plates or 200 cells/well in a 24-well plates. Colonies were analyzed using the IncuCyte® S3 2018A (Sartorius, France) software (with the following parameters modified from default: (1) for HCT116 cells segmentation adjustment=0.6; Min area (μm2)=3×104; Max area (μm2)=1.6×106; Max eccentricity=0.9; (2) for DLD1CHD1L OE cells segmentation adjustment=1; Min area (μm2)=1×104; Max area was not constrained; Max eccentricity=0.95. Experiments were replicated 2× (n=2 for each experiment).

## Cc1cc(Nc2ccc(NC(=O)Cc3cccs3)cc2)nc(N2CCCC2)n1 [Compound 6, N-(4-((6-methyl-2-(pyrrolidin-1-yl)pyrimidin-4-yl)amino)phenyl)-2-(thiophen-2-yl)acetamide]
[1]; EcadPro-RFP reporter and CellTox Green, imaged every 2 h, relative to DMSO
  E-cadherin expression before onset of cytotoxicity: significant increase in E-cadherin expression prior to induction of cytotoxicity
[1]
  EC50: 11.4 ± 0.3 µM
[2]; listed as 6.0
  inhibition of CSC stemness (clonogenic colony formation), in words: more potent dose dependent inhibition; also recorded: significantly inhibits CSC stemness

## Cc1cc(Nc2ccc(NC(=O)c3c[nH]c4ccccc34)cc2)nc(N2CCCC2)n1 [Compound 6.3, N-(4-((6-methyl-2-(pyrrolidin-1-yl)pyrimidin-4-yl)amino)phenyl)-1H-indole-3-carboxamide]
[1]; SW620 or HCT116 tumor organoids
  upregulation of E-cadherin promoter activity (EcadPro-RFP), in words: upregulation of E-cadherin promoter activity
[2]
  inhibition of CSC stemness (clonogenic colony formation), in words: significantly inhibits clonogenic colony formation

## COc1ccc(-c2nc(S(=O)(=O)c3ccccc3)c(S(C)(=O)=O)o2)cc1 [Compound 5]
[1]
  EC50: 11.9 ± 0.3 µM
[2]
  inhibition of CSC stemness (clonogenic colony formation), in words: more potent dose dependent inhibition

Reference: patent US20230103444A1 (The Regents of the University of Colorado, a Body Corporate, priority 2020, published 2023)
